Our source for the IC50 values is BindingDB's records for patent US20250346600 (Moma Therapeutics, 2025).

Test [1] concerns the target T1, Bifunctional 3'-5' exonuclease/ATP-dependent helicase WRN [2-1432] (UniProt Q14191).
T1 construct: 2-1432
The test can be described thus: WRN activity Format A. The procedure: Full length WRN protein (aa 2-1432) (production described separately) was used for the biochemical activity assays. The 39-mer ssDNA “C6.18” ([…]) was purchased from IDT and used as a substrate. Quantification of ATP hydrolysis was evaluated using the ADP-Glo assay kit (Promega, Madison, WI). An enzyme titration time-course was performed to determine the optimal assay conditions. […] To evaluate the inhibitory effects of the compounds, 11-point 3-fold serial dilutions were prepared in DMSO.50nL of each concentration in duplicate was preincubated for 30 minutes in a 384-well microplate (Greiner #784075) with 5μL of 0.5nM WRN in assay buffer. The reaction was initiated by adding 5μL of 200nM C6.18 DNA with 20μM ATP and was allowed to proceed for 30 minutes at room temperature. The reaction was stopped with 10μL ADP-Glo reagent for 1 hour to remove unreacted ATP. Lastly, 20μL ATP detection reagent was added and incubated for 1 hour to generate the luminescence signal. Control wells included “high controls” with no inhibition (DMSO, no compound) and “low controls” with maximum inhibition (no WRN). Luminescence was recorded on a PHERAstar (BMG Labtech, Ortenberg, Germany). Data was fit using the “Smart Fit” method within the Genedata Screener Software (Basel, Switzerland) to obtain IC50 values using four-parameter fits. Reported IC50s are the geometric means of at least two independent trials.

Test [2] addresses T1, Bifunctional 3'-5' exonuclease/ATP-dependent helicase WRN [2-1432]. The test is described as follows: WRN activity Format B. How it is done: The 39-mer ssDNA “C6.18” ([…]) was purchased from IDT and used as a substrate. Quantification of ATP hydrolysis was evaluated using the ADP-Glo assay kit (Promega, Madison, WI). An enzyme titration time-course was performed to determine the optimal assay conditions. […] Data was fit using the “Smart Fit” method within the Genedata Screener Software (Basel, Switzerland) to obtain IC50 values using four-parameter fits. Reported IC50s are the geometric means of at least two independent trials.

The IC50 is the concentration that inhibits the measured activity by half. Higher therefore signals lower potency.

T1 sequence (Q14191 2-1432): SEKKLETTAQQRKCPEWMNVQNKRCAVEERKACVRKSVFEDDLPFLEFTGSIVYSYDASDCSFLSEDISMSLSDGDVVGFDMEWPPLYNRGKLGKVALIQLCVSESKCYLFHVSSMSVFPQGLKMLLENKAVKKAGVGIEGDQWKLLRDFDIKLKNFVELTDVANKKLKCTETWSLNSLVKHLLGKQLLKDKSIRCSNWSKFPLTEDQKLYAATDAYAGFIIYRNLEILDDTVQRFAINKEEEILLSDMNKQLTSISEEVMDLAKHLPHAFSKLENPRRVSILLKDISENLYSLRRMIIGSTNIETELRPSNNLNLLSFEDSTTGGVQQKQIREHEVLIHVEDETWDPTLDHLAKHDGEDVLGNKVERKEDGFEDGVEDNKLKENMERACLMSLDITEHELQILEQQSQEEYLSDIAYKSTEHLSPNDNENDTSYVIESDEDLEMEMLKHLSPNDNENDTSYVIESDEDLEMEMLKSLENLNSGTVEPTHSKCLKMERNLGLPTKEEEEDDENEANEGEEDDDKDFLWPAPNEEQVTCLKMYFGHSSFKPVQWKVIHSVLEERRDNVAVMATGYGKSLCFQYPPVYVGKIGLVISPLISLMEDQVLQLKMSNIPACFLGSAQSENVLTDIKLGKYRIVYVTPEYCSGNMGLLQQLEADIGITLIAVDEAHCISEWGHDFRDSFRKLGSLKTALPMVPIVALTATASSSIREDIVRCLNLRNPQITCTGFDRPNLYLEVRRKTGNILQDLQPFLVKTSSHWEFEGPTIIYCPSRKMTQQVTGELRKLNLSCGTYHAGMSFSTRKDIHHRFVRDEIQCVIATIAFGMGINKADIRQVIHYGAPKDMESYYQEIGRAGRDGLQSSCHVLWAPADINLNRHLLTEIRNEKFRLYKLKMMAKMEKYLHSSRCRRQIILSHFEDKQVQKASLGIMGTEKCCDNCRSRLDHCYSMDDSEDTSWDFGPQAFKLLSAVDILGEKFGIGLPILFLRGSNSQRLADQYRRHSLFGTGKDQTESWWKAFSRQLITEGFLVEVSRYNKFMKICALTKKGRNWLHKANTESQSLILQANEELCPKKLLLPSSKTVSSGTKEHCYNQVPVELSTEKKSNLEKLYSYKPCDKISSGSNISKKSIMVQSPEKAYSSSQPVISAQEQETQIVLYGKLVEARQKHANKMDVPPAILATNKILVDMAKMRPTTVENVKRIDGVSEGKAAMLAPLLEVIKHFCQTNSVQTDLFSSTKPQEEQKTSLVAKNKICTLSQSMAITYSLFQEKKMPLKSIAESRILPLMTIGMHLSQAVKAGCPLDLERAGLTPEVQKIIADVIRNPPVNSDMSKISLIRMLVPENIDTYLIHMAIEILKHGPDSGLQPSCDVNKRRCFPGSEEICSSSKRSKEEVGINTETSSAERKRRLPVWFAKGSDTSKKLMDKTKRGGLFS

Consider `C=CC(=O)N1CCOc2nn(-c3ccc(C4CCC4)cc3O)c3c2C(C1)N(C(=O)C1=CC2=NN=C(Br)C2=CC1)CC3` (stereo not drawn) [US20250346600, Compound 40], for which the figures for the IC50 in test [1] and in test [2] were less than 1.5 nM and “in the range around 35 nM”, respectively. For `C=CC(=O)N1CCc2nn(-c3ccc(C4CC4)cc3)c3c2C(C1)N(C(=O)C1=CN=C2N=C(C(F)(F)F)N=C2C1)CC3` (stereo not drawn) [US20250346600, Compound 124], in test [1], the half-maximal inhibitory concentration (IC50) entry was “in the range around 35 nM”.
